Experimental data from publication PMC12051620, “Molecular basis underlying the specificity of an antagonist AA92593 for mammalian melanopsins” (The Journal of Biological Chemistry, 2025).

Experiments:
Experiment in all cases: GsX GloSensor assay with Gsα/q11
Format in all cases: cell-based
Settings in all cases: 16.7 μM AA92593, COS-1 cells
[1] = system: jumping spider rhodopsin-1 I189^ECL2W
From the text: (§1) We next tested the effect of AA92593 on jumping spider rhodopsin-1, a Gq-coupled visual opsin but not melanopsin (see Figs. 2, S2, and S3) ([41]). Similar to non-mammalian-type and invertebrate melanopsins, jumping spider rhodopsin-1 was not sensitive to AA92593 as assessed using the GsX GloSensor assay (Fig. 7L). […] The introduction of I189^ECL2W/Y207^5.42F impaired the light-dependent cAMP responses even in the absence of AA92593 (Fig. S11). Taken together, the non-melanopsin Gq-coupled opsin cannot be functionally converted to an AA92593-sensitive type by site-directed mutagenesis, in contrast to non-mammalian-type and invertebrate melanopsins.
(§2) For GloSensor assay, opsins, GloSensor assay sensor (coded by pGlo-22F), and NanoBiT-tagged G proteins were transiently expressed in COS-1 cells (kindly provided from Dr David Farrens, Oregon Health and Science University) using PEI as described previously ([24], [52]). […] For GFP-fluorescence microscopy, a 35-mm cell culture dish (IWAKI) was transfected with 2 μg melanopsin-GFP plasmid and 8 μg PEI in 400 μl Opti-mem and 1.2 ml D-MEM. […]
(§3) The transfected COS-1 cells were incubated at 37 °C, 5% CO2 for 2 days, and the medium was aspirated and exchanged with 50 μl of HBSS (145 mM NaCl, 10 mM D-glucose, 5 mM KCl, 1 mM MgCl2, 1.7 mM CaCl2, 1.5 mM NaHCO3, 10 mM Hepes, pH 7.4), containing 33.3, 20, 10, 2, 0.2, 0.02, 0.002, or 0 μM AA92593, 0.5% dimetyl sulfoxide (DMSO), and 4% (vol/vol) GloSensor cAMP reagent stock solution. […] Then, the cells were incubated at room temperature for 1 h, and luminescence changes were monitored. After incubation of the cells with AA92593, luminescence measurement was interrupted, the plate was ejected, and the cells were added with 50 μl of HBSS containing 0.2 μM 9-cis-retinal. […] Luminescence was measured using GM-2000 or GM-3510 microplate reader (Promega). Luminescence level of each well was measured every 30 s with integration time of 0.6 to 0.9 s. […] After illumination, luminescence measurement was resumed. The measured luminescence levels were normalized to the level at the starting point (time = 0 min). […]

[2] = system: jumping spider rhodopsin-1 M94^2.61F/T188^ECL2S/L269^6.52S
From the text: as §1, §2, §3

[3] = system: jumping spider rhodopsin-1 Y207^5.42F
From the text: as §1, §2, §3

Measured: change in sensitivity to AA92593 vs WT

COc1ccc(S(=O)(=O)N2CCCCC2)cc1C [AA92593]
did not increase: all assays above
